Read-outs that look alike come from different tables or passages of the source. Peptide text beside a SMILES is read from it.
Assays:
HSV-1 KOS mutant hrR3 = assay: LacZ+ virus (hrR3) entry assay with pre-adsorbed virus (entry block); type: cell-based
[1] = system: Influenza virus strain PR8; parameters: species or system mice; details: mouse, in vivo
hrR3 virions = assay: Trypsinization of peptide-treated virions; type: cell-based, HSV-1; details: for IC50: 1 h at 37° C.
trypsin = target: T1, trypsin (Sus scrofa, UniProt P00761); assay: Trypsinization of peptides; details: 0.005 or 0.01% trypsin, 1 h at 37° C.
T1 construct: purchased BioWhittaker 17-160E
Experimental: Trypsinization of peptides: Peptides dissolved in serum-free DMEM were exposed to 0.005 or 0.01% trypsin for 1 h at 37° C. The trypsin was then inactivated with a 1.3-fold molar excess of soybean trypsin inhibitor and the ability of the peptides to inactivate virions was tested as described above (centrifugation assay). In controls, trypsin was inactivated before it was added to the peptides.
In Panel B, peptides in serum-free medium were pre-treated with active trypsin (open bars) or inactivated trypsin (shaded bars) for 1 h at 37° C. before they were added to virions for 1 h at 37° C. (see Example 1). The treated virions were then pelleted and resuspended in serum-supplemented medium and assayed for infectivity without further trypsinization. The peptide concentrations were as high or higher than those used in Panel A: […] TAT-C, 50 μM bKLA, 200 μM EB and bHOM-9. Trypsin concentrations used in both Panels A and B, were 0.005% (for bKLA, EB and bHOM-9) or 0.01% (for TAT-C and the ‘no peptide’ control).

[2] = system: Vero, HeLa, CV-1PD, TM-1, DP-9, CEMx174, NIKS, W12E cells; assay: MTS assay, eight cell lines; details: for cytotoxicity to cells (MTS), overall: eight cell lines

T1 sequence (P00761 9-231): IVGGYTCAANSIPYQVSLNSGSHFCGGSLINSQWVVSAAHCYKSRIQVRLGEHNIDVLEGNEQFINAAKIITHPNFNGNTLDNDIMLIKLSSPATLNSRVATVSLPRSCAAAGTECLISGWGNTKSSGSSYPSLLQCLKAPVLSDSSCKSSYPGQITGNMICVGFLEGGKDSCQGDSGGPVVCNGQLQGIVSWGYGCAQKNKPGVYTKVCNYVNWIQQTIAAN

With `N=C(N)NCCC[C@H](NC(=O)CN)C(=O)N[C@@H](CCCCN)C(=O)N[C@@H](CCCCN)C(=O)N[C@@H](CCCNC(=N)N)C(=O)N[C@@H](CCCNC(=N)N)C(=O)N[C@@H](CCC(N)=O)C(=O)N[C@@H](CCCNC(=N)N)C(=O)N[C@@H](CCCNC(=N)N)C(=O)N[C@@H](CCCNC(=N)N)C(=O)N[C@@H](CS)C(=O)O` [TAT-C, NH2-GRKKRRQRRRC-COOH] the IC50 (HSV-1 KOS mutant hrR3; 33° C., read-out: Entry Block 33° C. IC50) was 3 µM, the IC50 (HSV-1 KOS mutant hrR3; 33° C., read-out: Entry Block IC50) was 3 µM and the IC50 (HSV-1 KOS mutant hrR3; 33° C., read-out: inhibition of entry IC50) was 3 µM. For the same compound, the IC50 (HSV-1 KOS mutant hrR3; 37° C., read-out: Entry Block 37° C. IC50) was 3.1 µM, the “temperature dependence of inhibition of entry and virus inactivation” value (HSV-1 KOS mutant hrR3; FIGS. 16A, B) was “completely temperature-independent” and the mice protected [1] was 90%. The “effect of trypsin on infectivity of peptide-treated virions” value (hrR3 virions) was “no effect on virus infectivity”, the IC50 (hrR3 virions; read-out: IC50 after exposure of treated virus to 0.01% active trypsin) was 86 µM and the IC50 (hrR3 virions; read-out: IC50 after exposure of treated virus to inactivated trypsin) was 90 µM. The “effect of trypsinization of the peptide on its antiviral activity” value (trypsin) was “completely abolished their antiviral activity”, the “inhibition after rinsing with 0.5 M NaCl” value (hrR3; 30 μM peptide 1 h at 4° C.) was “completely reversed” and the infection blocked (hrR3; 30 μM peptide 1 h at 4° C., rinsed with culture medium alone) was 50%. The “concentration at which not toxic (MTS)” value ([2]; all cell lines tested) was over 400 µM and the “cytotoxicity to cells (MTS), overall” value [2] was “generally not cytotoxic”.

In the case of `CC(C)C[C@H](NC(=O)[C@H](C)NC(=O)[C@H](CC(C)C)NC(=O)[C@H](CC(C)C)NC(=O)[C@@H](NC(=O)[C@H](C)NC(=O)[C@@H]1CCCN1C(=O)[C@H](CC(C)C)NC(=O)[C@H](CC(C)C)NC(=O)[C@H](C)NC(=O)[C@@H](NC(=O)[C@H](C)NC(=O)[C@H](C)NC(=O)[C@H](CCCCN)NC(=O)[C@H](CCCCN)NC(=O)[C@H](CCCNC(=N)N)NC(=O)[C@@H](N)CCCNC(=N)N)C(C)C)C(C)C)C(=O)N[C@@H](CC(C)C)C(=O)N[C@@H](C)C(=O)N1CCC[C@H]1C(=O)O` [EB] (H-RRKKAAVALLPAVLLALLAP-OH), the “reduction of the number of lacZ+ cells” value (HSV-1 KOS mutant hrR3; 25 μM peptide, pre-adsorbed virus) is reported as over 90%, the virus entry inhibited (HSV-1 KOS mutant hrR3; 50 μM, 1 hour periods between 1 and 4 hours post-infection) is reported as 70-80% and the IC50 (HSV-1 KOS mutant hrR3; FIG. 7B, read-out: inhibition of entry of pre-adsorbed virus IC50) is reported as 15 µM. For the same compound, the IC50 (HSV-1 KOS mutant hrR3; read-out: Entry Blocking Activity IC50) was 15 to 26 µM, the mice protected [1] was 90% and the “effect of trypsin on infectivity of peptide-treated virions” value (hrR3 virions) was “did not have any effect”. The “effect of trypsinization of the peptide on its antiviral activity” value (trypsin) was “completely abolished their antiviral activity”, the “time needed to induce cellular resistance” value (hrR3; 30 μM peptide, 37° C.) was “almost instantaneously” and the “reversibility of resistance induced at 4° C. by rinsing with 0.5 M NaCl” value (hrR3; induced at 4° C.) was “only partially reversible”. The “reversibility of resistance induced at 37° C. by rinsing with 0.5 M NaCl” value (hrR3; induced at 37° C.) was “completely irreversible”, the IC50 (hrR3; read-out: IC50 for rendering cells resistant to subsequent viral infection in the absence of peptide, cells exposed 1 h at 37° C., peptide rinsed off) was 2300 nM and the IC50 (hrR3; read-out: IC50 of cellular resistance after 8.5 h in peptide-free medium, 8.5 h after first exposure) was over 100000 nM. For the same compound, the IC50 (hrR3; read-out: IC50 of cellular resistance, first exposure, infected immediately after 1 h exposure) was 4000 nM, the IC50 (hrR3; read-out: IC50 of cellular resistance, second exposure, second exposure 8.5 h after the first) was 2500 nM and the “cytotoxicity to cells (MTS), overall” value [2] was “generally not cytotoxic”.
